Results as given in publication PMC10861593, “Kisspeptin-10 binding to Gpr54 in osteoclasts prevents bone loss by activating Dusp18-mediated dephosphorylation of Src” (Nature Communications, 2024).
Entries after “also recorded” stand apart in the source; their conditions may differ.

Columns and labels:
[1] = system: Dusp18 / Gpr54 interaction; experiment: Co-IP: interaction of Dusp18 with Gpr54 in RAW264.7 cells; assay type: cell-based, mouse
Method: Beads were analyzed by phosphatase activity assay (a), mass spectrometry assay (b), IB analysis (c) and quantification of protein levels (d). e, f Protein co-localization was analyzed by IF staining in primary pre-osteoclast with 10 nM Kp-10 treatment for 20 min. […] Scale bar, 50 µm. g, h binding affinity was measured by SPR binding analysis. […] Data represent means ± SEM. P values were determined by one-way ANOVA analysis (a, d, j, l) or two-tailed Student’s t-test (f). Representative results were obtained from at least three independent experiments. Source data are provided as a Source Data file.
(§1) Whole-cell proteins were extracted using 1x RIPA buffer (25 mM Tris, pH7.5, 150 mM NaCl, 0.5% Sodium deoxycholate, 1% Triton-X-100) supplemented with protease inhibitors (Complete Mini, Roche) and phosphatase inhibitors (phosphatase inhibitor cocktail set I and II, Calbiochem). Immunoprecipitation and immunoblotting with indicated antibodies were performed as described in Supplementary Table 1. Image Jsoftware (V1.52) was used for quantification analysis. Uncropped and unprocessed blots are presented in the Supplementary Information file.

[2] = system: DUSP18, Src, and GPR54 complex; experiment: Co-IP: DUSP18, Src and GPR54 heterotrimer complex formation in transfected 293T cells; assay type: cell-based; details: 293T with HA-Src, GPR54-Myc, DUSP18 (C104S)-Flag, Kp-10 20 min
Method: Anti-Flag IP derived from 293 T cells transfected with HA-Src and either DUSP18-Flag or DUSP18 (C104S)-Flag constructs with or without Kp-10 treatment for 20 min were lysed and subjected to anti-FLAG IP (b). Phosphatase reaction products using His-DUSP18 and His-DUSP18 (C104S) proteins purified from E. coli and SRC proteins purified from Sf9 insect cells (c) and quantification of protein levels (d). Anti-Src IP derived from RAW264.7 cells treated with or without Kp-10 treatment for 20 min were lysed and subjected to anti-Src IP (e) and quantification of protein levels (f). g, h Src and Dusp18 co-localization was analyzed by IF staining in primary pre-osteoclasts treated with 10 nM Kp-10 treatment for 20 min. Representative images of endogenous Dusp18 and Src were shown by TIRF microscopy (g), and MOC was used to quantify the degree of colocalization in cells from multiple images taken randomly (h). Scale bar, 50 µm. i–m IB and quantification of protein levels analysis. Anti-Flag IP derived from 293 T cells transfected with HA-Src, GPR54-myc, and either DUSP18-Flag or DUSP18 (C104S)-Flag constructs after Kp-10 treatment for 20 min (i) and quantification of protein levels (j, k). […] Scale bars, 125 µm (n), and pits depth were quantified by confocal microscopy (o). […] P values were determined by one-way ANOVA analysis (d, f, j, k, m, o) or by two-tailed Student’s t-test (h). […]

[3] = system: Dusp18 expression; experiment: WB of Dusp18 protein expression in RAW264.7 cells; assay type: cell-based, mouse
Text: Anti-Flag IP of lysates derived from 293 T cells transfected with GPR54-flag and Src-HA constructs (d) and quantification results (e). Anti-Flag IP of lysates derived from 293 T cells transfected with GPR54-flag and DUSP18-HA constructs (f) and quantification results (g). Anti-Flag IP of lysates derived from 293 T cells transfected with Src-HA, and DUSP18-flag constructs (h) and quantification results (i). j, k IB analysis of lysates derived from WT BMMs and Gq/11 KO BMMs with or without Kp-10 treatment for 1 h (j) and quantification of results (k). l Working model of Kp-10 /Gpr54 mediated Src dephosphorylation. […] However, both active Src and DUSP18 were recruited by GPR54 through the PR motif in GPR54 CT along with the increase of Kp-10 dose (1, 10 nM). […] Data represent means ± SEM. P values were determined by one-way ANOVA analysis (b, c, e, g, i, k). Representative results were obtained from at least three independent experiments. Source data are provided as a Source Data file.
as §1
Supplementary Fig. 7 a-b IB and quantification of Dusp18 protein level induced by indicated dose of Kp-10 for 1 hour in RAW264.7 cells (a) and quantification of protein levels (b) or induced by Kp-10 (1nM) for 1 hour in RAW264.7 transfected with ERK1/2 siRNA. Error bars are ± SEM. P-values were determined by one-way ANOVA analysis (b). ****P <0.0001. “ns” means no significant difference. Representative results were observed from at least three independent experiments. Source data are provided as a Source Data file.

[4] = system: osteoclast formation from BMMs; experiment: TRAP staining of osteoclast formation from BMMs; assay type: cell-based, mouse

Kisspeptin-10 [Kp-10]
recruitment of Src and Dusp18 by Gpr54, 10 nM ([1]; 10 nM Kp-10, Co-IP and IF): more significantly recruited | interaction of Dusp18 with Gpr54 ([1]; RAW264.7 cells, indicated dose of Kp-10 for 20 min): dose-dependently induced the interaction of Dusp18 with Gpr54 | heterotrimer complex formation with DUSP18 (C104S) [2]: but not when the catalytic center of DUSP18 was killed | protein level of Dusp18 upon ERK1/2 siRNA ([3]; RAW264.7, ERK1/2 siRNA, Kp-10 (1 nM) 1 h): cannot be obviously up-regulated | expression of Dusp18 (protein), 10 nM ([3]; RAW264.7, Kp-10 10 nM for 1 h): not by 10 nM Kp-10 | expression of Dusp18 (protein), 0.1 and 1 nM ([3]; RAW264.7, Kp-10 0.1, 1 nM for 1 h): obviously upregulated the expression of Dusp18; also recorded: induced the expression of Dusp18 obviously | osteoclast formation ([4]; Arrb1 knockout BMMs): still suppressed by Kp-10; also recorded: still blocked osteoclast formation | osteoclast formation ([4]; Arrb2 knockout BMMs): still suppressed by Kp-10; also recorded: still blocked osteoclast formation
